Results taken from the supplement of paper PMC10307832.

Tests used:
Experiment in all cases: relative viability (nuclei count vs DMSO), 5 days (fraction); higher = more cells survive
[1] = compound: CN(c1ncccc1CNc1nc(Nc2ccc3c(c2)CC(=O)N3)ncc1C(F)(F)F)S(C)(=O)=O + Nc1ncn([C@H]2C[C@H](O)[C@@H](CO)O2)c(=O)n1 [Decitabine] (partner 2 µM)
Method in brief: (§1)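 Cells from lung cancer lines were seeded into 1536-well plates and, one day later, dosed by pin tool. Treatments were either a single drug or a fixed dose of an anchor drug with five library-drug doses (not always all listed) in √10 steps. After 5 days, nuclei were stained in a one-step fixation (final 0.05% Triton X-100, 1% formaldehyde, 1 ug/ml Hoechst) and counted on 4× images, and relative viability is the treated-to-vehicle nuclei ratio, as the median of duplicate plates.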

[2] = compound: CN(c1ncccc1CNc1nc(Nc2ccc3c(c2)CC(=O)N3)ncc1C(F)(F)F)S(C)(=O)=O + C[C@@H](Oc1cc(-c2cnn(C3CCNCC3)c2)cnc1N)c1c(Cl)ccc(F)c1Cl [Crizotinib] (partner 1 µM)
Method in brief: as §1

[3] = compound: CN(c1ncccc1CNc1nc(Nc2ccc3c(c2)CC(=O)N3)ncc1C(F)(F)F)S(C)(=O)=O + N=C(N)NC(=N)NCCc1ccccc1 [Phenformin] (partner 250 µM)
Method in brief: as §1

[4] = compound: CN(c1ncccc1CNc1nc(Nc2ccc3c(c2)CC(=O)N3)ncc1C(F)(F)F)S(C)(=O)=O + CC1(C)CCC(c2ccc(Cl)cc2)=C(CN2CCN(c3ccc(C(=O)NS(=O)(=O)c4ccc(N[C@H](CCN5CCOCC5)CSc5ccccc5)c(S(=O)(=O)C(F)(F)F)c4)cc3)CC2)C1 [Navitoclax] (partner 0.5 µM)
Method in brief: as §1

Cell Line	relative viability ([1]; first compound 0.01 µM)	relative viability ([1]; first compound 0.03162 µM)	relative viability ([1]; first compound 0.1 µM)	relative viability ([1]; first compound 0.3162 µM)	relative viability ([1]; first compound 1 µM)	relative viability ([2]; first compound 0.01 µM)	relative viability ([2]; first compound 0.03162 µM)	relative viability ([2]; first compound 0.1 µM)	relative viability ([2]; first compound 0.3162 µM)	relative viability ([2]; first compound 1 µM)	relative viability ([3]; first compound 0.01 µM)	relative viability ([3]; first compound 0.03162 µM)	relative viability ([3]; first compound 0.1 µM)	relative viability ([3]; first compound 0.3162 µM)	relative viability ([3]; first compound 1 µM)	relative viability ([4]; first compound 0.01 µM)	relative viability ([4]; first compound 0.03162 µM)	relative viability ([4]; first compound 0.1 µM)	relative viability ([4]; first compound 0.3162 µM)	relative viability ([4]; first compound 1 µM)
HCC-366	0.332	0.369	0.327	0.354	0.307	0.588	0.964	0.509	0.606	0.236	0.662	0.695	0.614	0.577	0.606	1.03	1.18	1.08	1.04	0.927
HCC-827	0.284	0.309	0.348	0.413	0.391	0.893	0.905	1	0.893	0.851	0.402	0.465	0.432	0.441	0.404	1.01	1	0.995	1.04	0.915
HOP-62	0.208	0.212	0.256	0.211	0.245	0.926	1.04	0.962	0.809	1.04	0.776	0.681	0.628	0.675	0.558	1.18	1.07	0.94	1.04	0.934
LC-2-ad	0.789	0.833	0.828	0.852	0.863	0.491	0.465	0.514	0.435	0.469	0.52	0.544	0.548	0.567	0.524	0.556	0.479	0.433	0.364	0.322
LCLC-97TM1	0.228	0.212	0.2	0.238	0.215		0.434	0.416	0.224	0.181	0.345	0.437	0.425	0.397	0.401		0.394	0.25	0.381	0.385
LK-2	0.287	0.294	0.31	0.308	0.292	0.248	0.215	0.254	0.21	0.192	0.376	0.386	0.63	0.517	0.532	1.04	1.03	1.02	0.809	0.773
LOU-NH91	0.863	0.832	0.812	0.844	0.839	0.78	0.751	0.727	0.692	0.763	0.704	0.776	0.726	0.716	0.792	0.695	0.751	0.772	0.762	0.793
LU99A	0.959	0.996	0.907	0.874	0.913	0.594	0.584	0.584	0.758	0.633	0.874	0.706	0.952	0.924	1.15	0.737	0.955	0.824	0.91	0.788
LXF-289	0.374	0.427	0.419	0.412	0.447	0.851	0.875	0.824	0.788	0.773	0.542	0.55	0.538	0.521	0.525	0.988	1.04	0.962	0.929	0.911
NCI-H23	0.308	0.345	0.319	0.332	0.292	0.444	0.483	0.456	0.59	0.457	0.856	0.835	0.864	0.787	0.734	0.867	1.04	1.08	0.969	0.837
NCI-H322M	0.697	0.802	0.775	0.681	0.714	0.902	0.948		0.953	0.892	0.88	0.828	0.827	0.89	0.875	1.3	1.34		1.51	1.26
NCI-H441	0.3	0.25	0.264	0.261	0.224	0.679	0.825	0.604	0.692	0.654	0.926	0.859	0.805	0.864	0.787	0.476	0.687	0.479	0.706	0.374
NCI-H460	0.477	0.702	0.537	0.493	0.549	1.1	1.15	0.994	0.891	0.712	0.599	0.75	0.499	0.484	0.495	1.18	1.46	1.13	1.19	1.11
NCI-H520	0.549	0.655	0.484	0.49	0.549	0.874	0.795	0.78	0.782	0.601	0.601	0.777	0.57	0.678	0.552	1.05	1.12	1.2	1.19	1.17
NCI-H596	1.15	1.01	1.11	1.03	1.13	0.988	0.928	0.894	0.986	0.999	0.807	0.745	0.657	0.611	0.763	0.9	0.912	0.965	0.86	0.675
NCI-H647	0.425	0.51	0.498	0.544	0.502	1.01	1.43	1.05	1	1.06	0.483	0.689	0.616	0.579	0.401	1.16	1.21	1.16	1.04	1.07
